{
  "source": "patent US6770728B2",
  "about": "“Process for preparing ocular lens with urethane compound and process for preparing urethane compound for medical instruments” (Menicon Co., Ltd., priority 1999, dated 2004)",
  "test": "Solubility of catalysts in various solvents (maximum amount completely soluble)",
  "format": "physicochemical",
  "experimental": "Solubility of a various kind of catalysts in a various kind of solvents (water, methanol, acetone, acetonitrile, n-hexane, methylene chloride) was evaluated by studying maximum amount of catalysts completely soluble in a various kind of solvents.",
  "data": [
    {"substance": "Zinc acetylacetonate [ZnAA]", "values": [
      {"measurement": "Solubility", "setting": "solvent: acetone", "result": 1000, "unit": "µg/mL"},
      {"measurement": "Solubility", "setting": "solvent: acetonitrile", "result": "insoluble"},
      {"measurement": "Solubility", "setting": "solvent: methanol", "result": 50000, "unit": "µg/mL"},
      {"measurement": "Solubility", "setting": "solvent: methylene chloride", "result": 10000, "unit": "µg/mL"},
      {"measurement": "Solubility", "setting": "solvent: n-hexane", "result": "insoluble"},
      {"measurement": "Solubility", "setting": "solvent: water", "result": "insoluble"}
    ]}
  ]
}
